Patent US9834784B2, “Pest resistant plants” (Keygene N.V., priority 2011, dated 2017)

Legend:
[1] = test system: Tuta absoluta; assay: No-choice oviposition assay Tuta absoluta; type: in vivo; conditions: F2 plants, FIGS. 10A and 10B
Description: Tuta absoluta (order: Lepidoptera) were reared on tomato (S. lycopersicum). A no-choice assay was performed for 7 days. 5 adults were allowed to oviposit their eggs on S. lycopersicum (C32) plants and on F2 plants arisen from an interspecies cross between S. lycopersicum (C32) and S. habrochaites (PI127826). After 7 days, Tuta abosoluta oviposition (number of eggs deposited) was determined on the abaxial and adaxial side of six leaves per plant genotype. F2 plants were characterized for 7-epizingiberene content after the assay and Tuta abosoluta oviposition (number of eggs deposited) was correlated to the content of 7-epizingiberene.

[2] = test system: Bemisia tabaci whiteflies; conditions: cited from earlier work; for attractiveness of cultivated tomato to B. tabaci after addition of the compound: compared with neighbouring siblings, Bleeker et al. 2011; for repellent to Bemisia tabaci whiteflies: purified compounds, Bleeker et al., Phytochemistry 2011
[3] = test system: B. tabaci (biotype Q); assay: Clip cage bioassay B. tabaci (whitefly); type: in vivo, Bemisia tabaci; conditions: clip cages, 20 adults, after 5 days; compared with S. lycopersicum C32
Description: An interspecies cross between S. lycopersicum and S. habrochaites was performed and F2 lines were transferred to the greenhouse at the University of Amsterdam. The F2 plants were tested for their production of 7-epizingiberene. Cuttings were made of 7-epizingiberene producing F2 lines, S. lycopersicum C32 (moneymaker) and of S. habrochaites (PI127826). Both a parental line of the initial cross.
Two cuttings of genotypes PI127826 and C32 and the respective F2s received 4 clip cages, each of which contained 20 adult B. tabaci (biotype Q) initially collected in Almeria (Spain) and reared continuously on cucumber under laboratory conditions (see Bleeker et al., 2009—Plant Physiol.). After 5 days, the total number and percentage of dead flies and total nr of eggs (combined abaxial and adaxial side of leaves) was determined.

[4] = isolated compound; previously observed by Bleeker et al. 2011; cited from earlier work
[5] = test system: adult whiteflies B. tabaci; conditions: Antonious et al. 2005; cited from earlier work
[6] = test system: fourth instar larvae of Colorado potato beetle; conditions: Antonious et al. 2005; cited from earlier work
[7] = Enzyme activity assay with zFPP, products by enantioselective GC-MS; type: biochemical; conditions: heterologously expressed in E. coli; SPME, chiral column
Description: The full length gene (comprising SEQ ID NO:4 5′ of SEQ ID NO:2 (SEQ ID NO:4-SEQ ID NO:2)) was cloned into the pGEX-KG expression vector (Guan and Dixon 1991). Constructs were transformed to C41 (DE3) E. coli cells (Dumon-Seignovert et al., 2004). As a control, empty pGEX-KG vector was transformed. A culture was grown to an OD600 of 0.5-0.6 at 37° C. and placed at 4° C. for 30 min. Protein expression was induced with 1 mM isopropyl β-D-1-thiogalactopyranoside (IPTG). After 16 hours incubation at 16° C., cells were harvested by centrifugation. The supernatant was removed and the pellet was resuspended in assay buffer (25 mM HEPES, pH 7.2, 10 mM MgCl2, 10% (v/v) glycerol) with added lysozyme (1 mg mL^−1) and proteinase inhibitors and incubated on ice for 30 minutes and subsequently sonicated. The lysate was centrifuged and the supernatant was stored at −80° C. Activity assays were performed in 500 μL 50 mM HEPES, pH7.2, 100 mM KCl, 7.5 mM MgCl2, 20 μM MgCl2, 5% (v/v) glycerol, 5 mM DTT with 50 μL protein and 2 mM cis-FPP(2Z-6Z-farnesyl diphosphate) as substrate. Enzyme products were analyzed by GC-MS with Solid Phase Micro Extraction fiber (SPME). Terpene products were identified using standards and comparing ion spectra, retention time and Kovats Index (see FIGS. 1 and 2). […]

[8] = Enzyme activity assay with E-E-FPP, products by enantioselective GC-MS; type: biochemical; conditions: heterologously expressed; SPME, chiral column
Description: Activity assays were performed in 20 mL glass vials in a total volume of 500 μL 50 mM HEPES, pH7.2, 100 mM KCl, 7.5 mM MgCl2, 20 μM MgCl2, 5% (v/v) glycerol, 5 mM DTT with 50 μL protein and either 2 mM cis-FPP (2Z-6Z-farnesyl diphosphate), trans-FPP (E-E-farnesyl diphosphate), GPP (geranyl diphosphate), NDP (neryl diphosphate), or GGPP (geranylgeranyl diphosphate) as a substrate (Echelon Biosciences Incorporated, Salt Lake City, USA). Vials were closed with a teflon lined crimp cap immediately and incubated under moderate shaking for 1 hour at 30° C.
Enzyme products were sampled with a Solid Phase Micro Extraction fiber (SPME) for 10 minutes after the vial had been agitated and heated to 50° C. The fiber was desorbed for 1 minute in an Optic injector port (ATAS GL Int. Zoeterwoude, NL) which was kept at 220° C. For liquid injection 1-3 μL of sample in hexane was injected.
In order to separate alpha-zingiberene from 7-epizingiberene the Astec CHIRALDEX™ B-DM column (30m×0.25 mm×0.12 μm film thickness; Supelco) was selected. The column was placed in an 6890 N gas chromatograph (Agilent, Amstelveen, NI). […] Helium was used as a carrier gas. Mass spectra were generated with the ion source set to −70V at 200° C. and collected with a Time-of-Flight MS (Leco, Pegasus III, St. Joseph, Mich., USA) at 1850 V, with an acquisition rate of 20 scans per second.

## CC(C)=CCC[C@@H](C)[C@@H]1C=CC(C)=CC1 [7-epizingiberene]
[1]
  correlation of oviposition with 7-epizingiberene content: negatively correlated
[2]
  attractiveness of cultivated tomato to B. tabaci after addition of the compound: less attractive
  repellent to Bemisia tabaci whiteflies: act as repellent
[3]
  resistance to whiteflies (adult mortality and oviposition): enhances resistance to whiteflies
[4]
  stability when exposed to air: spontaneously convert to R-curcumene

## CCCCCCCCCCCC(C)=O [2-tridecanone]
[5]
  toxic effect against adult whiteflies B. tabaci: toxic effect

## CC(C)=CCC[C@@H](C)c1ccc(C)cc1 [R-curcumene]
[2]
  attractiveness of cultivated tomato to B. tabaci after addition of the compound: less attractive
  repellent to Bemisia tabaci whiteflies: act as repellent

## CCCCCCCCCC(C)=O [2-undecanone]
[6]
  toxic effect against fourth instar larvae of Colorado potato beetle: toxic effect

## CC(C)=CCC[C@H](C)c1ccc(C)cc1 [S-curcumene]
[2]
  repellent to Bemisia tabaci whiteflies: do not

## CC(C)=CCC[C@H](C)[C@@H]1C=CC(C)=CC1 [alpha-zingiberene]
[2]
  repellent to Bemisia tabaci whiteflies: do not

B1: ShZIS: 7-epizingiberene synthase protein from Solanum habrochaites, SEQ ID NO:1 (protein)
chain: CSHSTPSSMNGFEDARDRIRESFGKVELSPSSYDTAWVAMVPSKHSLNEPCFPQCLDWIIENQREDGSWGLNPSHPLLLKDSLSSTLACLLALTKWRVGDEQIKRGLGFIETQSWAIDNKDQISPLGFEIIFPSMIKSAEKLNLNLAINKRDSTIKRALQNEFTRNIEYMSEGFGELCDWKEIIKLHQRQNGSLFDSPATTAAALIYHQHDKKCYEYLNSILQQHKNWVPTMYPTKIHSLLCLVDTLQNLGVHRHFKSEIKKALDEIYRLWQQKNEEIFSNVTHCAMAFRLLRISYYDVSSDELAEFVDEEHFFATSGKYTSHVEILELHKASQLAIDHEKDDILDKINNWTRTFMEQKLLNNGFIDRMSKKEVELALRNFYIISDLAENRRYIKSYEENNFKILKAAYRSPNINNKDLFIFSIRDFELCQAQHQEELQQLKRWFEDCRLDQLGLSEQFISASYLCAIPIVPGPELSDARLVYAKYVMLLTIVDDHFESFASTDECLNIIELVERWDDYASVGYKSERVKVLFSMFYKSIEEIATIAEIKQGRSVKNHLINLWLKVMKLMLMERVEWCSGKTIPRIEEYLYVSSITFGSRLIPLTTQYFIGIKISKDLLESDEIYGLCNFTGIVLRLLNDLQDSKREQKEGSINLVTLLMKSISEEEAIMKMKEILEMKRRELFKMVLVQKKGSQLPQLCKEIFWRTCKWAHFTYSQTDRYRFPEEMENHIDEVFYKPLNH
modifications: Solanum habrochaites
[7]
  product formed from Z-Z-FPP: made 7-epizingiberene

B2: ObZIS: sweet lemon basil zingiberene synthase (Iijima et al., 2004), alpha-zingiberene synthase (protein, UniProt Q5SBP4 1-541, looked up)
Alpha-zingiberene synthase: MESRRSANYQASIWDDNFIQSLASPYAGEKYAEKAEKLKTEVKTMIDQTRDELKQLELIDNLQRLGICHHFQDLTKKILQKIYGEERNGDHQHYKEKGLHFTALRFRILRQDGYHVPQDVFSSFMNKAGDFEESLSKDTKGLVSLYEASYLSMEGETILDMAKDFSSHHLHKMVEDATDKRVANQIIHSLEMPLHRRVQKLEAIWFIQFYECGSDANPTLVELAKLDFNMVQATYQEELKRLSRWYEETGLQEKLSFARHRLAEAFLWSMGIIPEGHFGYGRMHLMKIGAYITLLDDIYDVYGTLEELQVLTEIIERWDINLLDQLPEYMQIFFLYMFNSTNELAYEILRDQGINVISNLKGLWVELSQCYFKEATWFHNGYTPTTEEYLNVACISASGPVILFSGYFTTTNPINKHELQSLERHAHSLSMILRLADDLGTSSDEMKRGDVPKAIQCFMNDTGCCEEEARQHVKRLIDAEWKKMNKDILMEKPFKNFCPTAMNLGRISMSFYEHGDGYGGPHSDTKKKMVSLFVQPMNITI
[8]
  product formed from E-E-FPP: made alpha-zingiberene
